Measurements from patent publication US6458778B1, “Estradienes” (Wyeth, priority 1997, dated 2002).

How the values were obtained:
Immature rats = experiment: In vivo uterotropic activity; settings: for Uterine Weight (mg) ± SD: immature rats; for estrogenic activity in vivo (in words): uterine stimulation compared with vehicle
[1] = target: T1, human estrogen receptor (hER-α) (Homo sapiens, UniProt P03372); experiment: Estrogen receptor binding, whole cell test procedure; settings: Ki of 5B estimated
T1 sequence (P03372 1-595): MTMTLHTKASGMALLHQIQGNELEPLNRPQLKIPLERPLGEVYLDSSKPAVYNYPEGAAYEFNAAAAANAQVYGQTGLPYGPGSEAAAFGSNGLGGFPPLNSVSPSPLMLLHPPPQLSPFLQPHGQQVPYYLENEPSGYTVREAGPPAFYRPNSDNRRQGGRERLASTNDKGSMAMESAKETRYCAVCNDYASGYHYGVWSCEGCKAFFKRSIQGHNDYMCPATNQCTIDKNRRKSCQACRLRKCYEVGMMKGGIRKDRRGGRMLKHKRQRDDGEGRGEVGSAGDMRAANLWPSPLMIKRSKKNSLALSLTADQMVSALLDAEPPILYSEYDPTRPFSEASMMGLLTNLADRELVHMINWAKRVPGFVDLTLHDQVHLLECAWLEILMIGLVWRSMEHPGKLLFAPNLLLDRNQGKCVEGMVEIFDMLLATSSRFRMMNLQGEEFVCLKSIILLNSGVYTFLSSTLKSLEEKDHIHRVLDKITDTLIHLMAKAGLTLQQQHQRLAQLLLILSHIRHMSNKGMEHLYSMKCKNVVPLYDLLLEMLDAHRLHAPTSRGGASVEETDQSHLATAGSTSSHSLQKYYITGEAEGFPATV

| Structure (SMILES) | Uterine Weight (mg) ± SD (Immature rats; 1 μg, three days S.C.) [mg] | Uterine Weight (mg) ± SD (Immature rats; 10 μg, three days S.C.) [mg] | Uterine Weight (mg) ± SD (Immature rats; 100 μg, three days S.C.) [mg] | Uterine Weight (mg) ± SD (Immature rats; 500 μg, three days S.C.) [mg] | estrogenic activity in vivo (in words) (Immature rats) | further results |
| --- | --- | --- | --- | --- | --- | --- |
| C[C@]12CC[C@H]3C(=CCC4=C3CC[C@@H](O)C4)[C@@H]1CCC2=O [5A, estra-5(10),7-dien-3α-ol-17-one] | 28.7 ± 2.7 | 33.3 ± 4.4 | 66.5 ± 4.7 | 78.9 ± 13.6 | significant estrogenic activity | estimated EC50 compared with 5B (Immature rats; in words, relative to approximately 30 μg/rat or 0.6 mg/kg for 5B): somewhat lower |
| C[C@]12CC[C@H]3C(=CCC4=C3CC[C@H](O)C4)[C@@H]1CCC2=O [5B, estra-5(10),7-dien-3β-ol-17-one] | 31.7 ± 6.6 | 43.5 ± 6.9 | 79.7 ± 5.8 | 82.6 ± 8.6 | significant estrogenic activity | Uterine Weight (mg) ± SD (Immature rats; 0.1 μg, three days S.C.): 34.1 ± 6.2 mg |
| C#C[C@]1(O)CC[C@H]2[C@@H]3CCc4cc(O)ccc4[C@H]3CC[C@@]21C [Ethinyl Estradiol, ethinyl estradiol, reference compound] | – | – | – | – | – | Uterine Weight (mg) ± SD (Immature rats; 0.5 μg, three days, positive control): 101.2 ± 2.8 mg |
| C[C@]12CCc3c(ccc4cc(O)ccc34)[C@@H]1CCC2=O [equilenen] | – | – | – | – | – | Ki [1]: 375 nM |
| C[C@]12CC[C@@H]3c4ccc(O)cc4CC[C@H]3[C@@H]1CCC2=O [estrone, reference compound] | – | – | – | – | – | EC50 estimated (Immature rats; in similar test procedures): 0.2 mg/kg |
